Test results published in US5322847A, “Azabenzimidazoles in the treatment of asthma, arthritis and related diseases” (Pfizer Inc., priority 1992, dated 1994).

How the values were obtained:
[1] = tested on: PAF lethality in CDl male mice; assay: PAF lethality assay; type: in vivo; details: Mus musculus; positive control; oral dosing 45 minutes before i.v. PAF injection; read-out: approximate ED 50
Experimental: To evaluate the compounds of the formula (I) in vivo, they are tested by the so-called PAF lethality assay procedure:
Mice: CDl males, all approximately the same weight (approximately 26 grams), 12 per group.
Vehicle for oral drug dosing: EES (5% ethanol, 5% emulphor, 90% saline). Stored at room temperature.
Drugs: For routine screening at 50 mg/kg, 20 mg drug is dissolved in 4 ml EES, using sonication in a sonicator bath or grinding in a Ten Broeck grinder to dissolve drug if necessary. If solubility is still a problem, the drug is used as a suspension.
Vehicle for i.v. Injection: Saline with 2.5 mg/ml Bovine Serum Albumin (BSA, Sigma #A4378) and 0.05 mg/ml Propranolol (Sigma #PO884). Prepared fresh daily and kept at room temperature.
Platelet Activating Factor (PAF): A […] stock solution is prepared by dissolving 1 mg PAF (Calbiochem #429460) in 0.18 ml ethanol. This is stored at -20° C. and is diluted in vehicle (see above) the day of use. The concentration of PAF used is calibrated so that when injected at 0.1 ml/10 grams body weight, it will kill approximately 80% of untreated controls. This is usually about […] (a 1 to 2034 dilution from stock). […]
Method: 45 minutes before PAF injection, mice are treated orally with drug using 0.1 ml/10 grams body weight. […] Results are expressed as percent mortality as compared to controls. […]

[2] = biological target: T1, PAF receptor sites on rabbit platelet homogenate (Oryctolagus cuniculus, UniProt G1TEI7); assay: platelet activating factor (PAF) receptor assay; type: binding; details: radioligand 3H-PAF; constant used in Ki=(IC50)/[1+(L/Kd)]; 25° C., sodium-free buffer +0.25% BSA; read-out: Kd (dissociation constant)
T1 construct: specific PAF receptor sites on rabbit platelet homogenate; tissue Rockland, Inc., Gilbertsville, Pa; (rabbit blood mixture); host or cells: platelets from blood of normal New Zealand white rabbits, freeze-thawed homogenate
T1 sequence (G1TEI7 1-342): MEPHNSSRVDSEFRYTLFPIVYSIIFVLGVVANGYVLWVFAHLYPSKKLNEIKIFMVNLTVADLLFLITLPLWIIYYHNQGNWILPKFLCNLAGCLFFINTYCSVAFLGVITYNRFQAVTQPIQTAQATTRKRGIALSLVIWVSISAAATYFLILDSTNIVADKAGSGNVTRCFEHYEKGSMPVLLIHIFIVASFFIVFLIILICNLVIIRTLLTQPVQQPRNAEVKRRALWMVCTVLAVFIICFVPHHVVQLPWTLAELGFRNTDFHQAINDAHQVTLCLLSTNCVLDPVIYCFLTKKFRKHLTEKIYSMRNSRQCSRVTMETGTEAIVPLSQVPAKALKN
Description: The platelet activating factor (PAF) receptor assay tests the ability of a compound to compete with radiolabeled PAF for specific PAF receptor sites on rabbit platelet homogenate.
Five hundred milliliters of a rabbit blood mixture is purchased from Rockland, Inc., Gilbertsville, Pa. The blood mixture is 4 parts blood: 1 part 4% sodium citrate (v/v), and is obtained by heart puncture from normal, approximately 8-month old New Zealand white rabbits. The blood mixture is delivered overnight on wet ice (approx. 8° C.).
The blood mixture is centrifuged at 514 g for 10 minutes. The supernatant platelet-rich plasma is gently laid over Ficoll-Paque (Pharmacia) at a ratio of 9 parts plasma:2 parts Ficoll (v/v) The plasma/Ficoll mixture is centrifuged at 856 g for 20 minutes. […] Protein concentration of the suspension is determined by a Bio-Rad assay. […]
The reaction tubes are incubated at 25° C. for 45 minutes. […] The vial is capped, vortexed and counted for 3H.
Percent specific binding is calculated using the formula
Percent specific binding is graphed as a function of compound concentration. […] Alternatively, the IC50 is calculated using the logistic dose-response (Hill plot) option of the VAX Biostat utility. The inhibitory constant (Ki) is calculated by using the formula […]

## O=C1CCN(c2ccccc2)N1 [Phenidone]
[1]
  ED50: ~25 mg/kg

## CCCCCCCCCCCCCCCCOCC(COP(=O)([O-])OCC[N+](C)(C)C)OC(C)=O (centres unmarked) [Example 3H-PAF]
[2]
  Kd: 830 pM
